Measurements taken from patent US20230183207A1 (priority 2020, published 2023).

Key:
[1] = tested on: SARS-CoV-2; type: cell-based
[2] = tested on: Vero-E6 and TMPRSS2-over-expressing Vero-E6 cells

SMILES	block of cytopathic effect of SARS-CoV-2 (FIG. 2) [1]	toxicity [2]
C=CCn1ccc2c(C(=O)Oc3cncc(Cl)c3)cccc21 [GRL-0820S]	significantly block the cytopathic effect	
O=C(Oc1cncc(Cl)c1)c1cccc2[nH]ccc12 [GRL-0920S]	significantly block the cytopathic effect	without significant toxicity
